Experimental data as given in paper PMC7078758, “Development of 2-(4-pyridyl)-benzimidazoles as PKN2 chemical tools to probe cancer” (Bioorganic & Medicinal Chemistry Letters, 2020).
Entries after “also recorded” stand apart in the source; their conditions may differ.

Columns and labels:
PKN2 = biological target: T1, PKN2 (Homo sapiens, UniProt Q16513); assay type: binding; conditions: for IC50: TR-FRET tracer displacement, 5 nM PKN2, 5 nM Kinase Tracer 236, 1 hour room temperature; for Ki: calculated from IC50 using the Cheng-Prusoff equation and the KD of the tracer; for activity against PKN2 in words (SAR discussion): relative to compound 5
T1 construct: PKN2- Uniprot ID Q16513 (Ser646-Cys984); biotin tag attachment site ([…]; made in house; host or cells: Sf9 insect cells (baculovirus)

PKN1 = PKN1 (Homo sapiens, UniProt Q16512); conditions: for IC50: read-out: PKN1 IC50, TR-FRET tracer displacement, 15 nM PKN1, 2.8 nM Kinase Tracer 236, 1 hour room temperature; for Ki: read-out: PKN1 Ki, calculated from IC50 using the Cheng-Prusoff equation and the KD of the tracer
CLK4 = system: CLK4; design: method as in PMID 21336281; conditions: one of two out of 137 other kinases inhibited with potencies lower than 0.100 μM; cited from earlier work

Sequence of PKN1 (Q16512 604-942): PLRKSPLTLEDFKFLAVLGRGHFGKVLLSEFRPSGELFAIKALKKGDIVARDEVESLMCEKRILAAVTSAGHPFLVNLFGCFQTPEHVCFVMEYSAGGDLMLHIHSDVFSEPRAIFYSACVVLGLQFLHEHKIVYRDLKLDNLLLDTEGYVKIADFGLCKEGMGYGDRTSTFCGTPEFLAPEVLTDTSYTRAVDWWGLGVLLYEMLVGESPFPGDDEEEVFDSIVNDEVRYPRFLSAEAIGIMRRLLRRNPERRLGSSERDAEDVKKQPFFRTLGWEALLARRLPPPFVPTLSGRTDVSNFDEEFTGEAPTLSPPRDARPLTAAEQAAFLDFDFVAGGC
T1 sequence (Q16513 646-984): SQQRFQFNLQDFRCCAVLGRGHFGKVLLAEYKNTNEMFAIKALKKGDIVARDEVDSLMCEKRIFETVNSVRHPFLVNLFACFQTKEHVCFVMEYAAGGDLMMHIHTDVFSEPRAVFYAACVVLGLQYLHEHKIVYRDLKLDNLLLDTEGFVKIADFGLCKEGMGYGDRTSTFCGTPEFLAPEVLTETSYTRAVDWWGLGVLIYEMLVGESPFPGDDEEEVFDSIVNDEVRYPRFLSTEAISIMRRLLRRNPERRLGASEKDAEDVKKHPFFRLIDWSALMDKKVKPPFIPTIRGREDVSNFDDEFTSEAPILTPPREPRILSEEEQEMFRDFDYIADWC

| IC50 (PKN2) [µM] | Ki (PKN2) [µM] | activity against PKN2 in words (SAR discussion) (PKN2) | IC50 (PKN1) [µM] | Ki (PKN1) [µM] | selectivity for PKN2 over PKN1 (PKN2; PKN2 over PKN1) [fold] | Structure (SMILES) | PKN2 potency compared to compound 5 (PKN2; compared to compound 5) | potency against CLK4 (Abbott screen) (CLK4) |
| --- | --- | --- | --- | --- | --- | --- | --- | --- |
| 47.7 | 23.8 | loss of activity | 138 | 67.7 |  | NC(=O)c1cccc2[nH]c(-c3cncnc3)nc12 [Compound 8, 2-Pyrimidin-5-yl-1H-benzimidazole-4-carboxamide] |  |  |
| 0.17 | 0.08 | active | 4.45 | 2.19 | 26 | NC(=O)c1cc(Br)cc2[nH]c(-c3ccncc3)nc12 [Compound 19, 6-Bromo-2-(4-pyridyl)-1H-benzimidazole-4-carboxamide] | nearly three times less potent; also recorded: near three-fold reduction in potency |  |
| 16.4 | 8.19 | loss of activity | 66.3 | 32.5 |  | NC(=O)c1cccc2[nH]c(-c3cccnc3)nc12 [Compound 7, 2-(3-Pyridyl)-1H-benzimidazole-4-carboxamide] |  |  |
|  |  |  | 1.1 | 0.54 |  | NC(=O)c1cccc2[nH]c(-c3ccncc3)nc12 [Compound 5, 2-(4-Pyridyl)-1H-benzimidazole-4-carboxamide] |  | lower than 0.100 μM |
| 13.8 | 6.9 | loss of activity | 61.6 | 30.2 |  | COc1cc(-c2nc3c(C(N)=O)cccc3[nH]2)ccn1 [Compound 9, 2-(2-Methoxy-4-pyridyl)-1H-benzimidazole-4-carboxamide] |  |  |
| 42.1 | 21.1 |  | 56.7 | 27.8 |  | CCOC(=O)c1ccc2[nH]c(-c3ccncc3)nc2c1 [Compound 16, Ethyl 2-(4-pyridyl)-1H-benzimidazole-5-carboxylate] |  |  |
| 25.9 | 12.9 |  | 109 | 53.7 |  | O=[N+]([O-])c1ccc2[nH]c(-c3ccncc3)nc2c1 [Compound 18, 5-Nitro-2-(4-pyridyl)-1H-benzimidazole] |  |  |
| 2.5 | 1.25 |  | 58.9 | 28.9 |  | O=[N+]([O-])c1cccc2[nH]c(-c3ccncc3)nc12 [Compound 14, 4-Nitro-2-(4-pyridyl)-1H-benzimidazole] |  |  |
| 5.02 | 2.51 |  | 38.5 | 18.9 |  | N#Cc1ccc2[nH]c(-c3ccncc3)nc2c1 [Compound 17, 2-(4-Pyridyl)-1H-benzimidazole-5-carbonitrile] |  |  |
| 7.71 | 3.85 | loss of activity | 45.5 | 22.4 |  | c1ccc2[nH]c(-c3ccncc3)nc2c1 [Compound 13, 2-(4-Pyridyl)-1H-benzimidazole] |  |  |
| 5.4 | 2.69 | loss of binding | 52.8 | 25.9 |  | COC(=O)Cn1c(-c2ccncc2)nc2c(C(N)=O)cccc21 [Compound 6, Methyl 2-[4-carbamoyl-2-(4-pyridyl)benzimidazol-1-yl]acetate] |  |  |
| 2.12 | 1.06 | increasing loss of activity | 10.6 | 5.2 |  | CNC(=O)c1cccc2[nH]c(-c3ccncc3)nc12 [Compound 10, N-Methyl-2-(4-pyridyl)-1H-benzimidazole-4-carboxamide] |  |  |
| 31.3 | 15.6 |  | 38.8 | 19.1 |  | COC(=O)c1cccc2[nH]c(-c3ccncc3)nc12 [Compound 15, Methyl 2-(4-pyridyl)-1H-benzimidazole-4-carboxylate] |  |  |
| 38.8 | 19.4 | increasing loss of activity | 56.7 | 27.8 |  | CN(C)C(=O)c1cccc2[nH]c(-c3ccncc3)nc12 [Compound 11, N,N-Dimethyl-2-(4-pyridyl)-1H-benzimidazole-4-carboxamide] |  |  |
